Source: article PMC9437973 (Journal of medicinal chemistry, 2021)
“Also recorded” adds a separate entry of the source.

Assays:
GluN1/2B NMDA receptor = GluN1/2B NMDA receptor (Rattus norvegicus, UniProt P35439); assay type: cell-based; settings: for current response to analog alone at GluN1/2B: 10 μM analog, continuous presence of 300 μM L-Glu
GluN1/2D NMDA receptor = GluN1/2D NMDA receptor (Rattus norvegicus, UniProt P35439); assay type: cell-based
GluN1^FATL/3B receptors = GluN1^FATL/3B receptors (Rattus norvegicus, UniProt Q8VHN2); test: Two-electrode voltage-clamp at GluN1^FATL/3B receptors; assay type: cell-based; settings: for activation of current responses at GluN1^FATL/3B: 10 μM analog alone; for inhibition of responses to Gly at GluN1^FATL/3B: 10 μM analog in presence of Gly
Chain of GluN1^FATL/3B receptors (Q8VHN2 25-1002, other chains not shown): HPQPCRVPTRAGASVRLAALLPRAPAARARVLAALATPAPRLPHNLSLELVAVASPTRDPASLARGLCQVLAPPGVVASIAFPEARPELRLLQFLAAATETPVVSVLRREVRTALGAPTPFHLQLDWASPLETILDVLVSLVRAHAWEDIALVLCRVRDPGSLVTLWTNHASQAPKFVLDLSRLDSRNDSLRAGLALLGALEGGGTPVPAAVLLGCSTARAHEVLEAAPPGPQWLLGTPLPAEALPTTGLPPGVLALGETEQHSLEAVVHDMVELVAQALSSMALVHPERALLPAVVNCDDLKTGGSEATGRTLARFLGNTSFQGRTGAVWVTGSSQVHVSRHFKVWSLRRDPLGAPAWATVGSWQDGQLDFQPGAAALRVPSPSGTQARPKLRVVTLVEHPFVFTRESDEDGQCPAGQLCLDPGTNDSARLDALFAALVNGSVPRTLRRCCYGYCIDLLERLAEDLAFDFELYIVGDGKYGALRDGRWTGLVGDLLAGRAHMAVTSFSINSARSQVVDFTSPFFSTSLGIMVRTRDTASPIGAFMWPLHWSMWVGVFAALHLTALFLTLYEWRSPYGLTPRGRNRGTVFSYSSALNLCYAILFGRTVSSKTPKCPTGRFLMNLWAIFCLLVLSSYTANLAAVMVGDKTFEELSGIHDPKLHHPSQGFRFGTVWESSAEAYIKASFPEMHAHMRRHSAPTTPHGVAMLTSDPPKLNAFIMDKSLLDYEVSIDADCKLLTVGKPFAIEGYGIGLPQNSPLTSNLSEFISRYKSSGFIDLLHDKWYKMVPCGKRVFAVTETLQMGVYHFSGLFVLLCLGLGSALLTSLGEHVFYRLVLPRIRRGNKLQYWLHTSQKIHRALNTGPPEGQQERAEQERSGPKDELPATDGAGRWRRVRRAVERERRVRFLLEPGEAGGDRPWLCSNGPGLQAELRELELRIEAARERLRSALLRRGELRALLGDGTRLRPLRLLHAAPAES

GluN1/2A NMDA receptor = GluN1/2A NMDA receptor (Rattus norvegicus, UniProt P35439); assay type: cell-based
GluN1^FATL/3A receptors = GluN1^FATL/3A receptors (Rattus norvegicus, UniProt Q9R1M7); test: Two-electrode voltage-clamp at GluN1^FATL/3A receptors; assay type: cell-based; settings: for activation of current responses at GluN1^FATL/3A: 10 μM analog alone; for inhibition of responses to Gly at GluN1^FATL/3A: 10 μM analog in presence of Gly
Chain of GluN1^FATL/3A receptors (Q9R1M7 24-1115 isoform Q9R1M7-2 limits assumed, other chains not shown): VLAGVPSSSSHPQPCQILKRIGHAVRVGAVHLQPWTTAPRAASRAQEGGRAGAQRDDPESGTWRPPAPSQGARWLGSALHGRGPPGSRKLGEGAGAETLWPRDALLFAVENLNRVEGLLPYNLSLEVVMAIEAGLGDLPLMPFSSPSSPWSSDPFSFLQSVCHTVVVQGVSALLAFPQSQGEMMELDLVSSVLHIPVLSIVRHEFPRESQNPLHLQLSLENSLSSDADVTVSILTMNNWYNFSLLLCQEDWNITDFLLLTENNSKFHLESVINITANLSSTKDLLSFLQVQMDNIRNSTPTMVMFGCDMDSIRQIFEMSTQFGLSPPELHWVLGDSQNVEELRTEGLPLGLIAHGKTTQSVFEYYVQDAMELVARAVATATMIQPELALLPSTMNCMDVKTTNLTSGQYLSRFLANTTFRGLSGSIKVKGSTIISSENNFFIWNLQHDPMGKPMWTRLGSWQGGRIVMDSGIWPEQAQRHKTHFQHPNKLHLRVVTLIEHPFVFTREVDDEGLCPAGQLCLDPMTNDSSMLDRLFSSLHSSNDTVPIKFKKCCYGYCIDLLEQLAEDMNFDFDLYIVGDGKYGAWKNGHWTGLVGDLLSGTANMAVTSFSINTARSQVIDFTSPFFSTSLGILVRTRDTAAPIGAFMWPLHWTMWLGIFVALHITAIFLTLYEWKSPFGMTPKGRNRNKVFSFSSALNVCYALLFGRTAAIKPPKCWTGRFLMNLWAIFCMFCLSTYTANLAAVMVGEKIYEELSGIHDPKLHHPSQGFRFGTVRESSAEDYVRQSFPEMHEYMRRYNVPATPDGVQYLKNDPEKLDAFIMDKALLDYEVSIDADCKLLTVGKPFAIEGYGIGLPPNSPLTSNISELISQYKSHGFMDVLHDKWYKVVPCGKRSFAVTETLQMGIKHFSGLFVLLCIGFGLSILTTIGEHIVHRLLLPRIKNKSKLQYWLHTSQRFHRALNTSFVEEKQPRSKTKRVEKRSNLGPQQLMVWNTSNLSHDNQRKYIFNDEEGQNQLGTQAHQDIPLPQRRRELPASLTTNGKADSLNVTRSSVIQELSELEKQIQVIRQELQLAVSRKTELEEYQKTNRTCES

GluN1/2B-F784L = GluN1/2B-F784L (Rattus norvegicus, UniProt P35439); test: Two-electrode voltage-clamp at mutated GluN1/2B-F784L receptors; assay type: cell-based; settings: 10 μM analog; 300 μM L-Glu
GluN1/2A-V783L = GluN1/2A-V783L (Rattus norvegicus, UniProt P35439); test: Two-electrode voltage-clamp at mutated GluN1/2A-V783L receptors; assay type: cell-based; settings: 10 μM analog; 300 μM L-Glu
GluN1/2B-F784V = GluN1/2B-F784V (Rattus norvegicus, UniProt P35439); test: Two-electrode voltage-clamp at mutated GluN1/2B-F784V receptors; assay type: cell-based; settings: 10 μM analog; 300 μM L-Glu
GluN1/2A-V783F = GluN1/2A-V783F (Rattus norvegicus, UniProt P35439); test: Two-electrode voltage-clamp at mutated GluN1/2A-V783F receptors; assay type: cell-based; settings: 10 μM analog; 300 μM L-Glu
[1] = target: Gly binding site in GluN1/2B receptors (Rattus norvegicus, UniProt P35439+Q00960); test: Inhibition of Gly responses at recombinant GluN1/2B; assay type: cell-based
GluN1/2A = settings: cited from earlier work
GluN1/2D = settings: cited from earlier work
GluN1/2B = settings: cited from earlier work
GluN1/2C = settings: cited from earlier work
[2] = maximal response compared to Gly

Row | agonist activity at GluN1/2B (in words) (GluN1/2B NMDA receptor) | agonist activity at GluN1/2D (in words) (GluN1/2D NMDA receptor) | inhibition of responses to Gly at GluN1^FATL/3B (GluN1^FATL/3B receptors) | inhibition of responses to Gly at GluN1^FATL/3A (GluN1^FATL/3A receptors) | Ki [1] [nM] | SMILES | activation of current responses at GluN1^FATL/3B (GluN1^FATL/3B receptors) | activation of current responses at GluN1^FATL/3A (GluN1^FATL/3A receptors) | current response to analog alone at GluN1/2B (GluN1/2B NMDA receptor) | other results
1 | no agonist activity | no agonist activity | – | – | – | N[C@H](CNC(=O)c1ccc(-c2ccccc2C(F)(F)F)o1)C(=O)O [Compound 8d, (R)-2-Amino-3-(5-(2-(trifluoromethyl)phenyl)furan-2-carboxamido)propanoic acid] | – | – | – | –
2 | virtually no agonist activity | virtually no agonist activity | did not inhibit responses to Gly | did not inhibit responses to Gly | ~100 | N[C@H](CNC(=O)c1ccc(-c2ccc(Cl)cc2[N+](=O)[O-])o1)C(=O)O [Compound 8p, (R)-2-amino-3-(5-(4-chloro-2-nitrophenyl)furan-2-carboxamido)propanoic acid] | No responses; also recorded: did not activate current responses | No responses; also recorded: did not activate current responses | unable to activate any current responses; also recorded: No responses | agonist activity at GluN1/2A (in words) (GluN1/2A NMDA receptor): virtually no agonist activity; maximal response relative to Gly at GluN1/2B-F784L versus wild type (GluN1/2B-F784L): did not significantly increase the maximal response; maximal response relative to Gly at GluN1/2A-V783L versus wild type (GluN1/2A-V783L): reduced the maximal response; maximal response relative to Gly at GluN1/2B-F784V versus wild type (GluN1/2B-F784V): did not significantly increase the maximal response; maximal response relative to Gly at GluN1/2A-V783F versus wild type (GluN1/2A-V783F): reduced the maximal response
3 | – | – | – | – | – | CCc1ccccc1-c1cccc2[nH]c(C(=O)NC[C@@H](N)C(=O)O)cc12 [AICP, (R)-2-Amino-3-(4-(2-ethylphenyl)-1H-indole-2-carboxamido)propanoic acid] | – | – | – | Rmax at GluN1/2A (GluN1/2A; [2]): 100%; EC50 (GluN1/2A; read-out: EC50 at GluN1/2A, full agonism): 66 nM; Rmax at GluN1/2D (GluN1/2D; [2]): 27%; EC50 (GluN1/2D; read-out: EC50 at GluN1/2D, partial agonist): 25 nM; Rmax at GluN1/2B (GluN1/2B; [2]): 10%; EC50 (GluN1/2B; read-out: EC50 at GluN1/2B, partial agonist): 25 nM; Rmax at GluN1/2C (GluN1/2C; [2]): 353%; EC50 (GluN1/2C; read-out: EC50 at GluN1/2C, superagonism): 1.7 nM
4 | no agonist activity | – | did not inhibit responses to Gly | did not inhibit responses to Gly | ~100 | CCc1ccccc1-c1ccc(C(=O)NC[C@@H](N)C(=O)O)o1 [Compound 8h, (R)-2-Amino-3-(5-(2-ethylphenyl)furan-2-carboxamido)propanoic acid] | No responses; also recorded: did not activate current responses | No responses; also recorded: did not activate current responses | unable to activate any current responses; also recorded: No responses | –
